Results on one compound are retold here after US11512111B2, “Yeats inhibitors and methods of use thereof” (The University of Hong Kong, priority 2017, dated 2022).

One assay deals with T1, AF9 YEATS domain (Homo sapiens, UniProt P42568).
T1 construct: His-AF9 (1-138); His (N); made in house; host or cells: E. coli Rosetta
T1 sequence (P42568 1-138): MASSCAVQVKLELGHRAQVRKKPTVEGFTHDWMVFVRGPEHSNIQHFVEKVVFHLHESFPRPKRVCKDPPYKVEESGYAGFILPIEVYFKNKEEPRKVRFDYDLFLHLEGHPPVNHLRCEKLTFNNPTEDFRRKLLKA
Description: Photo-cross-linking-based competition assay (photoaffinity probe, click chemistry, in-gel fluorescence). The format is binding. The note with it: ratio of IC50 values. As for the experimental part:
Mobile phase used were water with 0.1% trifluoroacetic acid (buffer A) and 90% acetonitrile in water with 0.1% trifluoroacetic acid (buffer B). The purity (>95%) and identity of peptides were confirmed by LC-MS. The inhibitory activities of the inhibitors were determined by a photo-cross-linking-based competition assay. […] The reactions were incubated for 1 h at r.t . . . . The reactions were quenched by adding 5 volumes of ice-cold acetone and placed at −20° C. overnight to precipitate proteins. After protein precipitation, samples were centrifuged at 6000×g for 5 min at 4° C. The supernatant was discarded and the pellet was washed with ice-cooled methanol twice and air-dried for 10 min. […] Samples were then resolved by SDS-PAGE. The labeled proteins were visualized by scanning the gel on a Typhoon 9410 variable mode imager (excitation 532 nm, emission filter 580 nm). A photo-cross-linking based method was used in this study to estimate inhibitory activity (FIG. 28). This method requires the use of a photoaffinity probe. The probe (probe 1 (SEQ ID NO:48), see below) is derived from a crotonylated peptide, ligand of the protein, carrying a photo-cross-linker and a terminal alkyne as bioorthogonal. The YEATS domain is incubated and bound to the probe through Kcr-dependent recognition. Upon UV-irradiation, the photo-cross-linker is activated and rapidly cross-linked to the protein, converting the non-covalent protein-probe interaction into a covalent linkage. The probe-labeled protein is subsequently conjugated to an azide-functionalized fluorescence dye (for example, rhodamine-N3, Rho-N3) via Cu(I)-catalyzed azide-alkyne cycloaddition (CuAAC, or “click” chemistry). After SDS-PAGE, the protein can be visualized by in-gel fluorescence scanning. If photo-cross-linking of the YEATS domain with photoaffinity probe is performed in the presence of an inhibitor, which occupies the Kcr binding pocket of the YEATS domain and thus inhibits the protein-probe interaction, the percentage of the YEATS domain in the sample that is labeled by the probe will be reduced. The in-gel fluorescence intensity detected will also be decreased. By varying the concentration of inhibitor added in the sample and quantifying the resulting fluorescence intensities, a competition curve of the inhibitor toward the protein-probe interaction will be obtained, which can be used to estimate the IC50 value. Due to the covalent nature of photo-cross-linking, weak protein-protein interactions can be captured and eventually visualized. The protein concentration used in the assay can be as low as several nanograms per microliter, while the fluorescence signal can still be robustly detected and quantified.

The target in the next assay is T2, ENL YEATS domain (Homo sapiens, UniProt Q03111).
T2 construct: His-SUMO-ENL (1-138); His (N); SUMO (N); made in house; host or cells: E. coli Rosetta
T2 sequence (Q03111 1-138): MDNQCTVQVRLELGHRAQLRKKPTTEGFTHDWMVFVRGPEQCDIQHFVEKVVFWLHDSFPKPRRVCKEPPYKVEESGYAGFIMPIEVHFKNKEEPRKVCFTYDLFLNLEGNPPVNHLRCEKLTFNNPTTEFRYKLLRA
Description: Photo-cross-linking-based competition assay. The note with it: competition with photoaffinity probe, in-gel fluorescence. It is filed as binding.

For a further assay, the system named is c-Myc expression. Description: JQ1-induced decrease of c-Myc expression, qPCR. It is filed as cell-based. The note with it: MOLM13 (FLAG-ENL), 50 μM, 24 hours then another 24 hours. The source says: (§1) FIG. 49A is a graph showing the effect of treatment of MOLM13 cells with compound 39 (XL-13m) on the sensitivity of JQ1-induced decrease in c-Myc expression. Expression of c-Myc was quantified by qPCR. P value by student's t-test. Mean±s.d., three biological replicates. FIG. 49B is a graph showing the effect of treatment of MOLM13 cells with compound 39 (XL-13m) on enrichment of ENL on indicated genes. […] P value by student's t-test. Mean±s.d., triplicate PCR analysis.
(§2) MOLM13 (FLAG-ENL) cells were cultured with or without 50 μM compound XL-13m. Every 2-3 days, live cells were counted by trypan blue exclusion assay and re-plated. […] MOLM13 (FLAG-ENL) cells were cultured with or without 50 μM compound XL-13m for 24 hours, and the cells were treated with 50 μM for another 24 hours. […] Expression of c-Myc was quantified by qPCR.
(Real-time PCR tracks product formation cycle by cycle.)

Another assay relates to MOLM13 (FLAG-ENL) cells. Put plainly: Cell proliferation, trypan blue exclusion count. The format is cell-based. The note with it: 50 μM, live cells counted every 2-3 days. As for the experimental part:
as §2

For assay [1], the target named is T3, ENL (Homo sapiens, UniProt Q03111).
T3 construct: expressed in transfected cells; host or cells: MOLM-13 (FLAG-ENL) cells
T3 sequence (Q03111 1-559): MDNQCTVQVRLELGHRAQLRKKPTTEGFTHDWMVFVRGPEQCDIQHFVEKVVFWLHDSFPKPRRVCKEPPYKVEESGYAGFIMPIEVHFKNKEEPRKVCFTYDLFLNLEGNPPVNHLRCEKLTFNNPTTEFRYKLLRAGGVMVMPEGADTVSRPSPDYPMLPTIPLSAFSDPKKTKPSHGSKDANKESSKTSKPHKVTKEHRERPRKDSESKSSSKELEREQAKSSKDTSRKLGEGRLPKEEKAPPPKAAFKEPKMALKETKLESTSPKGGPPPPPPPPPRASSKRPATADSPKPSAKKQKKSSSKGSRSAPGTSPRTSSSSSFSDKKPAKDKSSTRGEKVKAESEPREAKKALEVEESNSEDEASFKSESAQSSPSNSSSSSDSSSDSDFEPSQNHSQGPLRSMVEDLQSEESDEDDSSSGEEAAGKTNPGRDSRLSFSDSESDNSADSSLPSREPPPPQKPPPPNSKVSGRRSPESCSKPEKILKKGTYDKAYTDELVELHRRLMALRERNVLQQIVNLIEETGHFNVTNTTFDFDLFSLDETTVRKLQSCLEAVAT
Put plainly: ChIP-qPCR of ENL enrichment on genes in MOLM13 (FLAG-ENL) cells. The format is cell-based. The note with it: 50 μM, 72 hours.
Source text: as §1
MOLM13 (FLAG-ENL) cells were cultured with or without 50 μM compound XL-13m for 72 hours. […] MOLM13 (FLAG-ENL) cells were incubated with or without 50 μM compound for 16 hours and then were collected for cellular thermal shift assay (CETSA) as previously reported. Anti-FLAG antibody was used to detect ENL proteins and γ-actin blotting served as negative control.

Assay [2] concerns the target T3, ENL. Put plainly: Cellular thermal shift assay (CETSA) in MOLM-13 (FLAG-ENL) cells. It is filed as cell-based. The note with it: MOLM13 (FLAG-ENL), 50 μM, 16 hours, anti-FLAG. As to the method:
We next applied the cellular thermal shift assay (CETSA) to examine if XL-13m was cell permeable and could target ENL in living cells. MOLM-13 (FLAG-ENL) were treated with XL-13m for […] and then heated at different temperature to denature and precipitate proteins. […] Soluble proteins were extracted by freeze-thaw cycle and subjected to western blotting analysis.
MOLM13 (FLAG-ENL) cells were incubated with or without 50 μM compound for 16 hours and then were collected for cellular thermal shift assay (CETSA) as previously reported. Anti-FLAG antibody was used to detect ENL proteins and γ-actin blotting served as negative control.

For orientation: IC50 means the point on the concentration scale where inhibition reaches its midpoint. Take `CC(=O)N[C@@H](C)C(=O)N[C@@H](CCCNC(=N)N)C(=O)N[C@@H](CCCCNC(=O)c1cnco1)C(N)=O` [Compound 39]: at AF9 YEATS domain, the “activity on AF9 weaker than on ENL” value is reported as 4.5 fold. This compound also registered an IC50 on ENL YEATS domain of 0.56 µM. Besides, in the assay with c-Myc expression, the “sensitivity of JQ1-induced decrease of c-Myc expression” value is “increased the sensitivity”. Also, the “effect on cell proliferation” value in the assay on MOLM13 (FLAG-ENL) cells was “affected cell proliferation”. Also, the “enrichment of ENL on indicated genes” value at ENL [1] is “decrease of the enrichment of ENL”. Further, on ENL [2], the “thermal shift: targeting of ENL protein in living cells” value is “revealed the target of ENL protein”.
